Results: patent publication US20060122153A1, “Antineoplastic ether lipid compounds with modifications at the sn-2 carbon” (priority 2003, published 2006)

Tests used:
whole human blood = assay: Hemolysis assay with whole human blood; details: whole human blood; for H10: concentration producing 10% hemolysis; for H50: concentration producing 50% hemolysis
Description: Venous blood was collected in 10 mL Vacutainer tubes containing EDTA using a 21G needle or larger.
Stock solutions of 20 mM test sample in phosphate buffered saline (PBS) were prepared as follows:
Then 270 uL of whole blood was aliquotted in duplicate mini test tubes using positive displacement pipet. Next, 30 uL of each working stock solution, in duplicate, was added to the whole blood. Next, 30 uL of PBS was added for background control. The samples were capped or sealed with Parafilm and gently mixed. The blood was incubated at 37° C. in gentle rotating water bath for 30 minutes. Final concentration of test sample was 10% of working stock solution.
Total hemolysis samples of 1,% and 10% whole blood samples in deionized water were prepared as follows:
The samples were freeze thawed 3× in liquid nitrogen then wafer bath. The samples were then centrifuged 10 minutes at 1500 RPM. Next, 100 uL of supernatant was transferred to a cuvette and 1 mL deionized water was added. The absorbance was read at 550 nm vs. water blank.
H10 and H50 were calculated by graphing Percent Total Hemolysis vs. Test Sample Concentration. The Percent Total Henolysis=(average o.d of test sample)/(average o.d. of total hemolysis sample)×100

HL-60 = assay: NCI growth inhibition screen, leukemia panel; type: cell-based, human; design: key: = means equivalent activity; + means that it appears to be significantly better (i.e., by ˜2x); < means it appears to be less active than ET18OCH3 (˜2x); a combination like =/+ or </+ means that activity is dependent upon the isomer; a combination like =/+ or </+ means that activity is dependent upon the isomer; details: HL-60, Leukemia; from GI50s
Description: (§1) Candidates deemed suitable for in vivo testing were then synthesized in large scale quantities and some of this material was sent to the NCI's Developmental Therapeutics Program for a battery of growth inhibitory studies against various human tumor cell lines (60 cell lines, 9 different panels). The remainder of the material was used to assess in vivo efficacy using murine tumor models. Additionally, studies were conducted on the lead candidates to discern mechanism of action with particular emphasis on these agents apoptotic ability as measured by caspase 3 activity. The details (materials and methods) for these various assays are described further in the following discussion.
(§2) Ten compounds were also sent to NCI's Drug Discovery Program for screening against numerous human tumor cell lines (9 panels total: renal ovarian, colon, CNS, non-small cell lung, leukemia, breast, melanoma, and prostate). The data are shown in FIGS. 2a-i which also include data regarding D- and L-ET-18-OCH3 (listed as L-EL and D-EL in the figures). Upon examining the data, one is struck by how 1R and 1a′S standout in comparison to the other compounds, especially for the renal, ovarian, colon, and CNS panels.

MOLT-4 = assay: NCI growth inhibition screen, leukemia panel; type: cell-based, human; design: key: = means equivalent activity; + means that it appears to be significantly better (i.e., by ˜2x); < means it appears to be less active than ET18OCH3 (˜2x); a combination like =/+ or </+ means that activity is dependent upon the isomer; a combination like =/+ or </+ means that activity is dependent upon the isomer; details: MOLT-4, Leukemia; from GI50s
Description: as §1, §2

[1] = tested on: platelets in dog whole blood
Description: Briefly, whole citrated blood is diluted 1:2 with sterile saline and placed in a warm chamber with a mini stir bar. An electronic probe, measuring electrical resistance, is inserted in the sample. The aggregometer is calibrated and the baseline is observed to detect any spontaneous aggregation. The test sample is added and allowed to run for at least 6 minutes. If the sample is an agonist the platelets will start to aggregate and stick to the electronic probe causing resistance across the electrodes to increase. This resistance, in ohms, is measured 6 minutes post addition of sample. The test samples are run at 25, 100, 200, 400 and 800 uM and compared to 100 uM L-ET-18-OCH3.
Collection of Blood Sample for in vitro Platelet Aggregation Testing: Venous blood is collected in 4.5 mL Vacutainer tubes containing 0.129 M sodium citrate using a 21G needle or larger. Blood is immediately mixed by gentle inversion 15-20 times and kept at room temperature. Dilution ratio is 1 to 9 (3.8% citrate solution:blood). One (2.0 mL) Vacutainer tube containing EDTA is also collected for platelet counts. Complete blood counts (CBC) are measured on the CDC Technologies Hemavet 1500 to ensure that the test subject's platelets are within normal range. Amy vials of hemolytic blood or blood containing any clots should be discarded. Platelet aggregation testing must be completed within 3 hours of blood collection. After this time the ability of platelets to aggregate decreases.
Dilutions were prepared in PBS or saline at 40× concentration. (25 uL test sample are added to 1000 uL diluted blood (1:40)).

Compound	H10 (whole human blood) [µM]	H50 (whole human blood) [µM]	Performance as compared to ET-18-O—CH3 (HL-60)	Performance as compared to ET-18-O—CH3 (MOLT-4)	Platelet aggregation [1]	platelet aggregation response (in words) [1]
CCCCCCCCCCCCCCCCCCOC[C@@H](COP(=O)([O-])OCC[N+](C)(C)C)OS(C)(=O)=O [1a′S]	800	>2000	0	0		
CCCCCCCCCCCCCCCCCCOCC(COP(=O)([O-])OCC[N+](C)(C)C)OS(C)(=O)=O (stereo not shown) [Compound 1aR]	1000	>2000	=	=		
CCCCCCCCCCCCCCCCCCOCC(COP(=O)([O-])OCC[N+](C)(C)C)OC [D-ET18OCH3, 1-O-octadecyl-2-O-methyl-glycerophosphocholine, reference compound]					−	doesn't elicit an aggregation response
